What was measured:
[1] = system: patients with atrial fibrillation at risk of stroke; assay: RELY Clinical Trial, dabigatran 110 mg or 150 mg twice daily versus warfarin; format: in vivo
Description: The primary study outcome was stroke or systemic embolism. The primary safety outcome was major hemorrhage. Secondary outcomes were stroke, systemic embolism and death. […] All other bleeding was considered minor.
All analyses were based on intention-to-treat.

AF patients = details: ACTIVE W, warfarin arm; cited from earlier work

CC(=O)CC(c1ccccc1)c1c(O)c2ccccc2oc1=O (racemic) [warfarin, 3-(α-acetonylbenzyl)4-hydroxycoumarin]
ALT or AST >3xULN ([1]; adjusted to INR 2.0 to 3.0): (2.1) % | ALT or AST >3xULN with concurrent bilirubin >2xULN ([1]; adjusted to INR 2.0 to 3.0): (0.4) % | ALT or AST >3xULN with concurrent bilirubin >2xULN, number of patients ([1]; adjusted to INR 2.0 to 3.0): 22 | ALT or AST >3xULN, number of patients ([1]; adjusted to INR 2.0 to 3.0): 126 | Adverse Event Arthralgia ([1]; adjusted to INR 2.0 to 3.0): (5.5) % | Adverse Event Arthralgia, number of patients ([1]; adjusted to INR 2.0 to 3.0): 328 | Adverse Event Atrial fibrillation ([1]; adjusted to INR 2.0 to 3.0): (5.4) % | Adverse Event Atrial fibrillation, number of patients ([1]; adjusted to INR 2.0 to 3.0): 326 | Adverse Event Back pain ([1]; adjusted to INR 2.0 to 3.0): (5.5) % | Adverse Event Back pain, number of patients ([1]; adjusted to INR 2.0 to 3.0): 331 | Adverse Event Chest pain ([1]; adjusted to INR 2.0 to 3.0): (5.7) % | Adverse Event Chest pain, number of patients ([1]; adjusted to INR 2.0 to 3.0): 342 | Adverse Event Cough ([1]; adjusted to INR 2.0 to 3.0): (5.8) % | Adverse Event Cough, number of patients ([1]; adjusted to INR 2.0 to 3.0): 345 | Adverse Event Diarrhea ([1]; adjusted to INR 2.0 to 3.0): (5.5) % | Adverse Event Diarrhea, number of patients ([1]; adjusted to INR 2.0 to 3.0): 327 | Adverse Event Dizziness ([1]; adjusted to INR 2.0 to 3.0): (9.3) % | Adverse Event Dizziness, number of patients ([1]; adjusted to INR 2.0 to 3.0): 555 | Adverse Event Dyspepsia ([1]; adjusted to INR 2.0 to 3.0): (1.4) % | Adverse Event Dyspepsia, number of patients ([1]; adjusted to INR 2.0 to 3.0): 83 | Adverse Event Dyspnoea ([1]; adjusted to INR 2.0 to 3.0): (9.2) % | Adverse Event Dyspnoea, number of patients ([1]; adjusted to INR 2.0 to 3.0): 550 | Adverse Event Fatigue ([1]; adjusted to INR 2.0 to 3.0): (5.9) % | Adverse Event Fatigue, number of patients ([1]; adjusted to INR 2.0 to 3.0): 353 | Adverse Event Nasopharyngitis ([1]; adjusted to INR 2.0 to 3.0): (5.5) % | Adverse Event Nasopharyngitis, number of patients ([1]; adjusted to INR 2.0 to 3.0): 327 | Adverse Event Peripheral edema ([1]; adjusted to INR 2.0 to 3.0): (7.6) % | Adverse Event Peripheral edema, number of patients ([1]; adjusted to INR 2.0 to 3.0): 453 | Adverse Event Upper respiratory tract infection ([1]; adjusted to INR 2.0 to 3.0): (5.0) % | Adverse Event Upper respiratory tract infection, number of patients ([1]; adjusted to INR 2.0 to 3.0): 297 | Adverse Event Urinary tract infection ([1]; adjusted to INR 2.0 to 3.0): (5.3) % | Adverse Event Urinary tract infection, number of patients ([1]; adjusted to INR 2.0 to 3.0): 315 | Life threatening bleeding, Rate ([1]; adjusted to INR 2.0 to 3.0): 1.80 /100 Person Years | Mortality rate (death from any cause) ([1]; adjusted to INR 2.0 to 3.0): 4.13 % per year | Other Major bleeding, Rate ([1]; adjusted to INR 2.0 to 3.0): 1.80 /100 Person Years | Pulmonary embolism, Rate ([1]; adjusted to INR 2.0 to 3.0): 0.09 /100 Person Years | Rate of hemorrhagic stroke ([1]; adjusted to INR 2.0 to 3.0): 0.38 % per year | Rate of major hemorrhage (major bleeding) ([1]; adjusted to INR 2.0 to 3.0): 3.46 % per year | Rate of myocardial infarction ([1]; adjusted to INR 2.0 to 3.0): 0.54 % per year | Rate of net benefit-risk outcome (major vascular events, major bleeding and death) ([1]; adjusted to INR 2.0 to 3.0): 7.99 % per year | Rate of primary outcome stroke or systemic embolism ([1]; adjusted to INR 2.0 to 3.0): 1.70 % per year | Reason for discontinuation: Gastrointestinal bleeding ([1]; adjusted to INR 2.0 to 3.0): (0.9) % | Reason for discontinuation: Gastrointestinal disorders (including pain, vomiting and diarrhea) ([1]; adjusted to INR 2.0 to 3.0): (0.8) % | Reason for discontinuation: Outcome event ([1]; adjusted to INR 2.0 to 3.0): (2.2) % | Reason for discontinuation: Patient decision ([1]; adjusted to INR 2.0 to 3.0): (6.2) % | Reason for discontinuation: SAE ([1]; adjusted to INR 2.0 to 3.0): (1.6) % | Reason for discontinuation: SAE, number of patients ([1]; adjusted to INR 2.0 to 3.0): 95 | Stroke, systemic embolism, pulmonary embolism, myocardial infarction death or major bleed (net benefit), Rate ([1]; adjusted to INR 2.0 to 3.0): 7.99 /100 Person Years | Study Drug Discontinuation At one year ([1]; adjusted to INR 2.0 to 3.0): 10% | Study Drug Discontinuation At two years ([1]; adjusted to INR 2.0 to 3.0): (19) % | hepatobiliary disorders (AE) ([1]; adjusted to INR 2.0 to 3.0): (2.2) % | hepatobiliary disorders (AE), number of patients ([1]; adjusted to INR 2.0 to 3.0): 132 | hepatobiliary disorders (SAE) ([1]; adjusted to INR 2.0 to 3.0): (0.4) % | hepatobiliary disorders (SAE), number of patients ([1]; adjusted to INR 2.0 to 3.0): 25 | Rate of discontinuation ([1]; adjusted to INR 2.0 to 3.0, at 2.5 years): 19% | Study Drug Discontinuation At one year ([1]; adjusted to INR 2.0 to 3.0, listed as Warfarin): (10) % | Myocardial Infarction (AF patients): 0.6% (warfarin) | Stroke and systemic embolism (per 100 patient years) (AF patients): 1.5% (warfarin)
